Measurements reported in patent US10744127B2, “MDR-reversing 8-hydroxy-quinoline derivatives” (MAGYAR TUDOMÁNYOS AKADÉMIA TERMÉSZETTUDOMÁNYI KUTATÓKÖZPONT, priority 2016, dated 2020).
Like-named read-outs stand apart in the source and are kept apart here.

Tests used:
[1] = tested on: MDCK II and MDCK II B1 cell lines; test: Selective toxicity towards MDCK II and MDCK II B1 cell lines; format: cell-based, canine; conditions: MDCK II versus MDCK II B1
Procedure: (§1) Cell survival was measured by the PrestoBlue® Cell Viability Reagent (Life Technologies, USA). Cells were seeded in 100 μl medium at a density of 5000 cells/well in 96-well plates; the serially diluted drug was added the following day. Cells were then incubated for 72 hours at 37° C. in 5% CO2; the drug containing medium was removed, and the PrestoBlue® reagent was added according to the manufacturer's instructions. Fluorescence of the cells was measured by a Perkin Elmer EnSpire multimode plate reader or Perkin Elmer Victor X3 microplate reader. Data were background corrected and normalized to untreated cells. Curves were fitted with the help of Prism software using the sigmoidal dose-response model. Curve fit statistics were used to determine IC50 values. Differences between the IC50 values of the respective cell lines were analyzed by two-sided […] unpaired Student's t test and results were considered statistically significant at a P value of <0.05 (*) or 0.01 (**).
Data on selective toxicity (expressed as Selectivity Ratio, SR) in two MDR models engineered by retroviral transfection of P-glycoprotein (A431/A431-B1 and MDCK II/MDCK II B1 cell lines) are presented in Table 3 and Table 4.
A431 is a human epidermoid carcinoma cell line. Its derivative, the A431-B1 cell line expresses P-gp due to retroviral transfection of the mdr1 gene Türk, D. et al (Türk, D. et al., 2009). MDCK II is a canine kidney cell line. MDCK II B1 was created by inserting the mdr1 gene with transposons [Pape V F S et al. 2015] Both cell express P-gp stably, and show a stable MDR phenotype. Culture conditions were identical as in the case of MES-SA cells.

[2] = tested on: P-gp-expressing MES-SA/Dx5 cells; test: P-gp switch assay (Calcein AM); format: cell-based, human; conditions: MES-SA/Dx5, single dose at IC20 (killing 80% of the cells), surviving population at 80% confluence, Calcein AM
Procedure: One million P-gp-expressing MES-SA/Dx5 cells were plated in a T25 cell culture flask. After 24 hours the compound of interest was added directly to the cells at a concentration corresponding to the IC20 value (killing 80% of the cells). After 5 days the culture media was removed, the cells were washed with PBS and the culture medium was exchanged. Cells were monitored daily and the recovery was recorded. The medium was changed every 5 days until the confluence of the cells reached 80%. At 80% confluence the cells were removed by gentle trypsinization, counted by an automated cell counter and stained with Calcein AM, a cellular dye able to detect the function of P-gp (Homolya 1993). P-gp-positivity was evaluated based on the ability of P-gp-expressing cells to extrude Calcein AM.

[3] = tested on: MES-SA and MES-SA/Dx5 cells; test: Selective toxicity in the presence of the P-gp inhibitor tariquidar; format: cell-based, human; conditions: selectivity ratio in the presence of tariquidar (1 μM)
Procedure: In the presence of tariquidar (an inhibitor of P-gp function), the toxicity of the compounds selectively diminishes in multidrug-resistant MES-SA/Dx5 cells, while the toxicity is unchanged against parental MESSA cells, which is reflected by a decrease in the selectivity ratio (SR (TQ)).
To investigate the contribution of P-glycoprotein to the cytotoxic effect of a compound, cell survival was measured in the presence of the P-glycoprotein inhibitor tariquidar (1 μM). Tariquidar (CAS 206873-63-4) can be obtained e.g. from Selleck, Houston, USA.

MES-SA/Dx5 cells = test: Sensitivity of MES-SA/Dx5 cells to doxorubicin after a single treatment; format: cell-based, human; conditions: after treatment with a single dose (FIG. 3)
From the text: The above treatment with compounds of the general Formula I results in a new, stable phenotype, with the complete resensitization of cells to conventional chemotherapy consisting of P-glycoprotein substrates such as doxorubicin (FIG. 3).
Curves show the sensitivity of MES-SA/Dx5 cells (P-gp overexpressing cell line established from MES-SA) to doxorubicin before and after treatment with a single dose of a state of the art compound (NSC693872) and two compounds relating to this invention (Example compounds No. 9 and No. 17). The sensitivity of MES-SA cells is shown as a reference (P-gp-negative parental cell line). […] (Values indicate the IC50 values (μM) derived from the cytotoxicity curves).

[4] = tested on: MES-SA and multidrug-resistant MES-SA/Dx5 cell line; test: Selective toxicity (ratio of IC50 in MES-SA to IC50 in MES-SA/Dx5) and activity index; format: cell-based, human
From the text: Compounds having P-gp potentiated MDR-selective activity can be characterized by their inhibitory concentration (IC) with regard to a specific cancer cell line. Usually the IC value is given at a certain percentage ratio of non-inhibited molecules or surviving cells. For example an IC20 value of a compound on a cell line means that at this inhibitory concentration of the compound 80% of the cells are killed whereas 20% of the cells are still viable. A further characteristic of MDR-selective drugs is the selectivity ratio (SR), which is the ratio of the IC value measured in a non-multidrug resistant cell line to (i.e. divided by) the IC value measured in the corresponding transformed, multidrug-resistant cell line. The inverse value, the resistance ratio (RR) is calculated as the ratio of a compound's IC value against a multidrug resistant cell line divided by the parallel IC value of the same compound against a control non-multidrug resistant cell line. The Activity Index (AI) is calculated here as the ratio of the compound's selectivity ratio (SR) and the compound's IC50 value against the resistant cell. The AI reflects the level of simultaneous toxicity and selectivity towards multidrug-resistant cancer cells.
(§2) The human uterine sarcoma cell line MES-SA and its doxorubicin resistant counterpart MES-SA/Dx5 were obtained from ATCC (MES-SA: No. CRL-1976™, MES-SA-Dx5: No. CRL-1977™). MES-SA/Dx5 cells express high levels of P-gp, and therefore are multidrug resistant (MDR). Cells were cultured in DMEM supplemented with 10% FBS, 5 mmol/L glutamine and 50 unit/mL penicillin and streptomycin (Life Technologies).
as §1
Selectivity towards multidrug-resistant cells is expressed as the ratio of the IC50 value measured in the parental MES-SA and multidrug-resistant MES-SA/Dx5 cell line (Selectivity Ratio, SR).
A novel characteristic of the compounds presented in this invention is that they exert their selective cytotoxicity at low IC50 values. Simultaneous toxicity and selectivity towards multidrug-resistant cancer cells is reflected by the Activity Index (AI) of the compounds, which is the ratio of the selectivity ratio (SR) and the IC50 value on the resistant cell line.

MES-SA cell line = test: Cytotoxicity, PrestoBlue cell viability assay, parental MES-SA; format: cell-based; conditions: Homo sapiens; parental MES-SA cell line (Table 2a)
Procedure: as §2, §1

MES-SA/Dx5 cell line = test: Cytotoxicity, PrestoBlue cell viability assay, MES-SA/Dx5; format: cell-based; conditions: Homo sapiens
Procedure: as §2, §1

[5] = tested on: primary cells from doxorubicin resistant brca1-/-/p53-/- spontaneous mouse mammary carcinoma; test: Calcein assay of functional P-gp in primary tumor cells from doxorubicin resistant mammary carcinoma; format: cell-based; conditions: single treatment, calcein assay (FIG. 4D)
From the text: Tumor pieces derived from Brca1−/−;p53−/− FVB mouse mammary tumors were transplanted orthotopically into the mammary fat pad of wild type FVB mice.
As described by Rottenberg et al. (Pajic et al. 2009), treatment with several cycles of the maximum tolerable dose of doxorubicin invariably lead to drug resistance mediated by the moderate upregulation of Mdr1a and/or Mdr1b (FIG. 4A). Primary cultures from resistant tumors were established. In just 10 passages the culture was depleted of stromal components (FIG. 4B).
Functional expression of P-gp in the primary cells was evaluated by the calcein assay.

melting point: 146 to 148 °C
Compound: COc1ccc(CNCc2cc(Br)c3cccnc3c2O)c(OC)c1 [Example 9, 5-Bromo-7-(((2,4-dimethoxybenzyl)amino)methyl)quinolin-8-ol]
Selectivity Ratio (SR) (MDCK II/MDCK II B1) [1]: 16.8 | Fraction of P-gp-negative cells (P3) in the population [2]: 99.0% | Fraction of P-gp-positive cells (P4) in the population [2]: 1.0% | SR (TQ) [3]: 1.8 | Resensitization of MES-SA/Dx5 cells to doxorubicin (MES-SA/Dx5 cells): sufficient to resensitize MES-SA/Dx5 cells to doxorubicin | SR ([4]; MES-SA / MES-SA/Dx5 (Table 2b)): 20.4 | SR ([4]; MES-SA / MES-SA/Dx5, without tariquidar (Table 5)): 20.4 | IC50 (MES-SA cell line): 2260 nM | IC50 (MES-SA/Dx5 cell line; MES-SA/Dx5 (Table 2b), read-out: IC50 (μM) Dx5): 0.12 µM | IC50 (MES-SA/Dx5 cell line; Mes-sa/Dx5 cell line, PrestoBlue assay, 72 hours (Table 1), read-out: IC50): 0.118 µM | IC50 (MES-SA/Dx5 cell line; multidrug-resistant MES-SA/Dx5 cell line (Table 2a), read-out: IC50 (nM) in MES-SA/Dx5 cell line): 0.118 µM | P-gp efflux capacity of primary tumor cells [5]: efflux capacity of the cells could be eradicated by a single treatment
